Laboratory results taken from patent publication US20240336658A1, “CYCLIC PEPTIDE AND PREPARATION METHOD AND USE THEREOF” (HANGZHOU HUIBO SCIENCE AND TECHNOLOGY CO., LTD, priority 2021, published 2024).
Entries after “also recorded” stand apart in the source; their conditions may differ. Read-outs that look alike come from different tables or passages of the source.

Columns and labels:
[1] = system: full-thickness skin defect wound surfaces; assay: Effect of Hst1-MAD cyclic peptide on wound repair in mice (Example 22): healing rate, histology, immunohistochemistry, immunofluorescence double staining, Western Blot; type: in vivo, C57 BL/6 mice
Protocol: […]. 36 healthy male special pathogen-free grade C57 BL/6 mice (purchased from Guangdong Experimental Animal Center) of 6-8 weeks old and weighing 22-28 g. They were intraperitoneally injected with 5 ml/kg of 1% pentobarbital sodium for anesthesia. After the mice had no corneal reflex, the hair on their backs was carefully removed and disinfected with alcohol. […] full-thickness skin defect wound surfaces were prepared on the back of each mouse by using a circular skin punch. […]. Each wound surface was added with 0.5 ml of four drugs respectively, and administration was conducted every day until the wound surfaces of the experimental groups healed. Photographs were taken on days 0, 3, 5, and 10 after surgery, and wound tissues were sampled on days 3, 5, and 10 for subsequent pathological staining.
was observed and photographed with a digital camera (see FIG. 19), and the wound healing rate was calculated (see FIG. 20). Wound healing rate=(wound area immediately after injury−unhealed wound area at each time point)÷wound area immediately after injury×100%.
The wound specimens were fixed in 4% paraformaldehyde for 48 hours, rinsed with tap water for 10 minutes, dehydrated with graded ethanol, permeabilized with xylene, and embedded in paraffin to prepare 4 μm thick sections. Some sections were taken and subjected to HE staining to detect an epidermal thickness and subjected to Masson staining to detect newly grown collagen. Through hematoxylin-cosin staining (HE), the effects of the four groups of drugs on newly grown epidermal at the wound surface on day 10 were evaluated (FIGS. 21 and 22). Through Masson staining, the effects of the four groups of drugs on newly grown collagen at the wound surface on days 5 and 10 were evaluated (FIGS. 23 and 24). 5 sections were taken from each mouse, and 5 fields of view were selected for each section. Data analysis was performed using the software Image-pro Plus.
and rehydrated, subjected to antigen thermal repair with a 0.1 mol/L citric acid buffer (with a pH value of 6.0) for 20 minutes, treated with hydrogen peroxide with a volume fraction of 10% for inactivation of endogenous peroxidase for 10 minutes, and blocked with 50 g/L of bovine serum albumin for 2 hours. It was added with a rabbit anti-mouse CD31 primary antibody (with a dilution ratio of 1:300) and a mouse anti-VEGF (with a dilution ratio of 1:100), incubated overnight at 4° C., and washed with PBS. It was rewarmed for 1 hour, washed with PBS, added dropwise with ready-to-use biotinylated goat anti-mouse and goat anti-rabbit IgG secondary antibodies, incubated for 2 hours, and washed with PBS. It was subjected to DAB development, hematoxylin counterstaining. gradient ethanol dehydration, xylene permeabilization, and resin blocking. 5 sections were taken from each mouse, and 5 fields of view were selected for each section. The sections were observed under a 400× inverted fluorescence microscope, and analyzed for the number of CD31-positive blood vessels (see FIG. 25) and VEGF expression amounts (see FIG. 26) by using Image-pro Plus software.
The specific steps were: the previous steps were the same as those of 1.3.3, and they were incubated with the antibodies MHCII (orb101661; 1:500; Biorbyt Biotechnology Co., Ltd., Wuhan, CN), CD11c (97585; 1:200; Cell Signaling Technology Inc., Boston, MA), CD68 (GB11067; 1:300; Servicebio Inc.), CD80 (GB11034; 1:300; Servicebio Inc.), CD206 (GB11062; 1:500; Servicebio Inc.), claudin1 (37-4900; 1:100; Thermo Fisher Scientific Co., Ltd, Shanghai, CN) and claudin2 (32-5600; 1:200; Thermo Fisher Scientific Co., Ltd.) at 4° C. overnight. The fluorescent-labeled secondary antibodies were incubated at room temperature for 1 h, followed by 4′,6-diamidino-2′-phenylindole (DAPI) (G1012; Google Biotechnology Co., Ltd., Wuhan, CN). The stained sections were photographed by using a fluorescence microscope (Nikon Eclipse TI-SR. Tokyo, Japan). […]

[2] = system: fibroblasts (NIH/3T3); assay: Scratch experiment, Hst1-MAD cyclic peptides (Example 23); type: cell-based; details: dose required to achieve the same pharmaceutical effect in the scratch experiment
Description: In this example, the propargylglycine-Hst1-MAD cyclic peptide, the homopropargylglycine-Hst1-MAD cyclic peptide, the dihomopropargylglycine-Hst1-MAD cyclic peptide and the linear Hst1 prepared in Examples 13, 14, and 15, and the Hst1-MAD head-to-tail cyclic peptide or N-terminal and C-terminal cyclized peptide prepared by the amide bond cyclization method provided by the literature of for example Sortase A as a tool for high-yield histatin cyclization, Jan G. M. Bolscher, The FASEB Journal. Research Communication, were adopted respectively, the reaction time was recorded, the yield of the reaction product was detected by HPLC, the proportion of side reactions in the reaction product was calculated, and activity comparison was performed. The activity comparison method was to calculate the dose required to achieve the same pharmaceutical effect through a scratch experiment. […] After 12 hours and 24 hours of culture, the scratched area of each group was calculated by using imageJ (Rawak Software, Inc. Germany) software, and the scratch area at 0 hour was an initial scratch area. The scratch healing rate was calculated in the following manner: W % (scratch healing rate)=(W0−Wt)/W0×100%, where W0=an initial scratch area, and Wt=a remaining scratch area; and the results were as shown in Table 14.

## Cyclized Hst1 prepared by Sortase A enzymatic method
Enzyme bond, Sortase A
  ring closure, conversion: 90%

## Linear Hst1-MAD: shortest sequence that maintains Hst1 activity, 20th to 32nd amino acids of Hst1, SEQ ID NO.13 (SHREFPFYGDYGS)
[1]; Western Blot, 1 μM Click-Hst1-MAD, 1 μM Hst1-MAD
  inhibitory effects on inflammatory factors IL-6 and MIP-1β: significantly better than those of the control group and the 10 μM Histatin1 group
[1]; day 3 after surgery, Western Blot, 1 μM Click-Hst1-MAD, 1 μM Hst1-MAD
  expression levels of Nrf2 and HO-1: increased compared with those in the Control group
[1]; day 5, 1 μM Click-Hst1-MAD, 10 μM Histatin1, 1 μM Hst1-MAD compared with each other
  VEGF expression amount: comparable
[1]; day 5, 1 μM Hst1-MAD and 10 μM Histatin1 compared with each other
  expression levels of the dermal collagen: equivalent
[1]; day 10, HE staining, 1 μM Click-Hst1-MAD, 1 μM Hst1-MAD, 10 μM Histatin1
  epidermal thickness at the wound surface: thinnest epidermal thickness
[1]; day 10, immunofluorescence, 1 μM Click-Hst1-MAD, 1 μM Hst1-MAD, 10 μM Histatin1
  Claudin1 expression intensity: equivalent expression level of Claudin1
[1]; days 3 and 5, 1 μM Click-Hst1-MAD, 1 μM Hst1-MAD linear peptide, 10 μM Histatin1
  healing rate of the wound surface: equivalent to that of the 10 μM Histatin linear peptide group
[1]; days 3 and 5 evaluated, 1 μM Click-Hst1-MAD, 1 μM Hst1-MAD, 10 μM Histatin1
  number of dendritic cells (MHCII+ and CD11c+): slightly lower than that of the 10 μM Histatin1 group; also recorded: significantly higher than that in the Control group
[1]; days 3 and 5 evaluated, 1 μM Hst1-MAD, 10 μM Histatin1
  number of M1 macrophages (CD68+ and CD80+): slightly higher than that in the 10 μM Histatin1 group; also recorded: lower than that in the Control group
[1]; days 5 and 10, immunohistochemistry, 1 μM Click-Hst1-MAD, 1 μM Hst1-MAD, 10 μM Histatin1
  number of CD31-positive blood vessels: significantly higher than that in the Control group
[2]
  Dosage of agents required for scratch test: 8 µM

## Hst1 cyclized through amide bonds
Amide bond
  ring closure, conversion: 3%
